Laboratory results: US20250122183A1 (Pfizer Inc., priority 2023, published 2025)
Where two headings read alike, the source gives them in different places.

Key:
[1] = biological target: KAT7+JADE1+EAF6+ING5 4 protein complex (Homo sapiens (Human), UniProt O95251); assay: KAT7 JADE1 assay (SAMDI-MS acetylation of H3 1-21 peptide); type: biochemical; settings: replicate number in parentheses
KAT6A Full length enzyme = KAT6A Full length enzyme (Homo sapiens (Human), UniProt Q92794); assay: KAT6A assay (SAMDI-MS acetylation of H3 1-21 peptide); type: biochemical; settings: replicate number in parentheses
[2] = Morrison equation fit, read-out: KAT7 JADE1 Ki (nM) (replicate number)
[3] = Morrison equation fit, read-out: KAT6A Ki (nM) (replicate number)
[4] = read-out: KAT7 JADE1 Ki (nM) (replicate)
[5] = read-out: KAT6A Ki (nM) (replicate)

Sequence of KAT6A Full length enzyme (Q92794 other isoform, or with tags, fused parts or gaps): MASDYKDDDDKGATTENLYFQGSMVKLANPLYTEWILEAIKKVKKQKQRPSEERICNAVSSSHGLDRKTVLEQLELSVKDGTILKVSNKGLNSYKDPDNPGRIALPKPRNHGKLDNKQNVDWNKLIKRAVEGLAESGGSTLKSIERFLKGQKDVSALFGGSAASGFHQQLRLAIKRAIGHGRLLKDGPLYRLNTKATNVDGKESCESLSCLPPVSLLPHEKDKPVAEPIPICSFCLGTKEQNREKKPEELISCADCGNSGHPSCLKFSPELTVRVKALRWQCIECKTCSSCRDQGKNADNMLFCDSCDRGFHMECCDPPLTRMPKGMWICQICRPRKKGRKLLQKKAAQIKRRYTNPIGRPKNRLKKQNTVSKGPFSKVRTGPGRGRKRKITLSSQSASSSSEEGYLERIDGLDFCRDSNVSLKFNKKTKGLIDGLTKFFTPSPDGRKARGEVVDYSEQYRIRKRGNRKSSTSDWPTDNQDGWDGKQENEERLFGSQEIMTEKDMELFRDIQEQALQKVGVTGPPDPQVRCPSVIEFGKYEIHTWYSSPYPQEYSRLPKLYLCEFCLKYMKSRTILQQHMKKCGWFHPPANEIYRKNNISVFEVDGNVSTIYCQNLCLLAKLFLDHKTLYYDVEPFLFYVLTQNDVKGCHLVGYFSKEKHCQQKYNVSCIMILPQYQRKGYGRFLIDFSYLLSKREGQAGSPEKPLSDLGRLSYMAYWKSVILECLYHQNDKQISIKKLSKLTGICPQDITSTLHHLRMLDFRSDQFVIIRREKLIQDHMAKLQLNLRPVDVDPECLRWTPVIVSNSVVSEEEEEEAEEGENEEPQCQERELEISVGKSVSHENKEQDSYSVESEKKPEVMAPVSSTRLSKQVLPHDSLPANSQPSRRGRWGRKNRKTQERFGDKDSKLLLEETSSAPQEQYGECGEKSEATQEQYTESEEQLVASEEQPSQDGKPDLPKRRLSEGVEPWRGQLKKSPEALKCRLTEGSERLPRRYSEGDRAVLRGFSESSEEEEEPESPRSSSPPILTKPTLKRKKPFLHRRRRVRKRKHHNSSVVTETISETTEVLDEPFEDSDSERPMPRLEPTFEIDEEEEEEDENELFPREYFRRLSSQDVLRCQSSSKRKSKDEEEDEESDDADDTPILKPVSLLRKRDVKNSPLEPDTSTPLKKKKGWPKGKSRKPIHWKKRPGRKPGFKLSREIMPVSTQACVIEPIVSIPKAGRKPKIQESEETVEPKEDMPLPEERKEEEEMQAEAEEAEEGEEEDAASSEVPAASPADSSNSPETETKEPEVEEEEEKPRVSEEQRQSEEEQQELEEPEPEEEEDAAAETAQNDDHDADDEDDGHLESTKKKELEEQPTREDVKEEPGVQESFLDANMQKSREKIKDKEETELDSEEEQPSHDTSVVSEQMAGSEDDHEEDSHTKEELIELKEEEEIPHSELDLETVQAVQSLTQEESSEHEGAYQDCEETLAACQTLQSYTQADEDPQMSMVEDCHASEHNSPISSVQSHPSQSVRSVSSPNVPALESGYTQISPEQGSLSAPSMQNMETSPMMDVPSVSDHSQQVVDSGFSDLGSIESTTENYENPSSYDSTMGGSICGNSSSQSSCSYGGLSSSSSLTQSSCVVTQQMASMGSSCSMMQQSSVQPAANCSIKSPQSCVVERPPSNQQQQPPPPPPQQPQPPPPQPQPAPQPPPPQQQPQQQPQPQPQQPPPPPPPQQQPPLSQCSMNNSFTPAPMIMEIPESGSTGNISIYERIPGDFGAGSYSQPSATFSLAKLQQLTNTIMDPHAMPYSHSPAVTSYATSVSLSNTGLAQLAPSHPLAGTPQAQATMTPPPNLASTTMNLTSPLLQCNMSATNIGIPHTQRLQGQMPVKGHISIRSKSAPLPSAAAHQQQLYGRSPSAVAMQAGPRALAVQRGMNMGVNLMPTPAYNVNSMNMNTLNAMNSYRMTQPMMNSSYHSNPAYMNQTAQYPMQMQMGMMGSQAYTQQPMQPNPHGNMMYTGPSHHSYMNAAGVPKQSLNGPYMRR

| Structure (SMILES) | Ki [1, 2] [nM] | Ki (KAT6A Full length enzyme; [3]) [nM] | Ki [1, 4] [nM] | Ki (KAT6A Full length enzyme; [5]) [nM] |
| --- | --- | --- | --- | --- |
| COc1cc2c(NS(=O)(=O)c3c(OC)cc(CN4CCC[C@H](F)C4)cc3OC)noc2cc1Nc1cc(C2CC2)n[nH]1 (single isomer, unassigned) [Example 197, N-{6-[(3-cyclopropyl-1H-pyrazol-5-yl)amino]-5-methoxy-1,2-benzoxazol-3-yl}-4-[(3-fluoropiperidin-1-yl)methyl]-2,6-dimethoxybenzene-1-sulfonamide] | 7.3 | 1.3 | – | – |
| COc1cc2c(NS(=O)(=O)c3c(OC)cc(CN4CCC[C@@H](F)C4)cc3OC)noc2cc1Nc1cc(C2CC2)n[nH]1 (single isomer, unassigned) [Example 198, N-{6-[(3-cyclopropyl-1H-pyrazol-5-yl)amino]-5-methoxy-1,2-benzoxazol-3-yl}-4-[(3-fluoropiperidin-1-yl)methyl]-2,6-dimethoxybenzene-1-sulfonamide] | 5.9 | 1.1 | – | – |
| COc1cc2c(NS(=O)(=O)c3c(OC)cc(C(C)N4CCOCC4)cc3OC)noc2cc1Nc1cc(C2CC2)n[nH]1 (single isomer, unassigned) [Example 208, N-{6-[(3-cyclopropyl-1H-pyrazol-5-yl)amino]-5-methoxy-1,2-benzoxazol-3-yl}-2,6-dimethoxy-4-[1-(morpholin-4-yl)ethyl]benzene-1-sulfonamide] | 7.6 | 2.4 | – | – |
| COc1cc2c(NS(=O)(=O)c3c(OC)cc(C(C)N4CC(F)C4)cc3OC)noc2cc1Nc1cc(C2CC2)[nH]n1 (single isomer, unassigned) [Example 210, N-{6-[(5-cyclopropyl-1H-pyrazol-3-yl)amino]-5-methoxy-1,2-benzoxazol-3-yl}-4-[1-(3-fluoroazetidin-1-yl)ethyl]-2,6-dimethoxybenzene-1-sulfonamide] | 6.6 | 1.2 | – | – |
| COc1cc2c(NS(=O)(=O)c3c(OC)cc(C4CN(C)CC(F)(F)C4)cc3OC)noc2cc1Nc1cc(C2CC2)[nH]n1 (single isomer, unassigned) [Example 228, N-{6-[(5-cyclopropyl-1 H-pyrazol-3-yl)amino]-5-methoxy-1,2-benzoxazol-3-yl}-4-(5,5-difluoro-1-methylpiperidin-3-yl)-2,6-dimethoxybenzene-1-sulfonamide] | 6.2 | 0.8 | – | – |
| COc1cc2c(NS(=O)(=O)c3c(OC)cc(C4CN(C)CC(F)(F)C4)cc3OC)noc2cc1Nc1cc(C2CC2)[nH]n1 (single isomer, unassigned) [Example 229, N-{6-[(5-cyclopropyl-1 H-pyrazol-3-yl)amino]-5-methoxy-1,2-benzoxazol-3-yl}-4-(5,5-difluoro-1-methylpiperidin-3-yl)-2,6-dimethoxybenzene-1-sulfonamide] | 6.4 | 1.7 | – | – |
| CCc1cc(Nc2cc3onc(NS(=O)(=O)c4c(OC)cc(C5COCCO5)cc4OC)c3cc2OC)[nH]n1 (single isomer, unassigned) [Example 239, 4-(1,4-dioxan-2-yl)-N-{6-[(3-ethyl-1H-pyrazol-5-yl)amino]-5-methoxy-1,2-benzoxazol-3-yl}-2,6-dimethoxybenzene-1-sulfonamide] | 14.1 | 2.1 | – | – |
| CCc1cc(Nc2cc3onc(NS(=O)(=O)c4c(OC)cc(C5COCCO5)cc4OC)c3cc2OC)[nH]n1 (single isomer, unassigned) [Example 240, 4-(1,4-dioxan-2-yl)-N-{6-[(3-ethyl-1H-pyrazol-5-yl)amino]-5-methoxy-1,2-benzoxazol-3-yl}-2,6-dimethoxybenzene-1-sulfonamide] | 7.5 | 1.2 | – | – |
| COc1cc2c(NS(=O)(=O)c3c(OC)cc(-c4ccn(C)n4)cc3OC)noc2cc1Nc1cc(C2CC2C)n[nH]1 (single isomer, unassigned) [Example 241, 2,6-dimethoxy-N-(5-methoxy-6-{[3-(2-methylcyclopropyl)-1H-pyrazol-5-yl]amino}-1,2-benzoxazol-3-yl)-4-(1-methyl-1H-pyrazol-3-yl)benzene-1-sulfonamide] | 75.3 | 2.6 | – | – |
| COc1cc2c(NS(=O)(=O)c3c(OC)cc(N4C(=O)CCC4C)cc3OC)noc2cc1Nc1cc(C2CC2)n[nH]1 (single isomer, unassigned) [Example 244, N-{6-[(3-cyclopropyl-1 H-pyrazol-5-yl)amino]-5-methoxy-1,2-benzoxazol-3-yl}-2,6-dimethoxy-4-(2-methyl-5-oxopyrrolidin-1-yl)benzene-1-sulfonamide] | 1.3 | 0.2 | – | – |
| COc1cc2c(NS(=O)(=O)c3c(OC)cc(N4C(=O)CCC4C)cc3OC)noc2cc1Nc1cc(C2CC2)n[nH]1 (single isomer, unassigned) [Example 245, N-{6-[(3-cyclopropyl-1 H-pyrazol-5-yl)amino]-5-methoxy-1,2-benzoxazol-3-yl}-2,6-dimethoxy-4-(2-methyl-5-oxopyrrolidin-1-yl)benzene-1-sulfonamide] | 3.6 | 0.7 | – | – |
| COc1cc2c(NS(=O)(=O)c3c(OC)cc(C4CCOC4)cc3OC)noc2cc1Nc1cc(C2CC2)n[nH]1 (single isomer, unassigned) [Example 266, N-{6-[(3-cyclopropyl-1H-pyrazol-5-yl)amino]-5-methoxy-1,2-benzoxazol-3-yl}-2,6-dimethoxy-4-(oxolan-3-yl)benzene-1-sulfonamide] | – | – | 13.6 | 1.6 |
| COc1cc2c(NS(=O)(=O)c3c(OC)cc(C4CCOC4)cc3OC)noc2cc1Nc1cc(C2CC2)n[nH]1 (single isomer, unassigned) [Example 267, N-{6-[(3-cyclopropyl-1H-pyrazol-5-yl)amino]-5-methoxy-1,2-benzoxazol-3-yl}-2,6-dimethoxy-4-(oxolan-3-yl)benzene-1-sulfonamide] | – | – | 9.3 | 1.3 |
| COc1cc2c(NS(=O)(=O)c3c(OC)cc(C4CCCOC4)cc3OC)noc2cc1Nc1cc(C2CC2)n[nH]1 (single isomer, unassigned) [Example 268, N-{6-[(3-cyclopropyl-1 H-pyrazol-5-yl)amino]-5-methoxy-1,2-benzoxazol-3-yl}-2,6-dimethoxy-4-(oxan-3-yl)benzene-1-sulfonamide] | – | – | 8.8 | 1.2 |
| COc1cc2c(NS(=O)(=O)c3c(OC)cc(C4CCCOC4)cc3OC)noc2cc1Nc1cc(C2CC2)n[nH]1 (single isomer, unassigned) [Example 269, N-{6-[(3-cyclopropyl-1 H-pyrazol-5-yl)amino]-5-methoxy-1,2-benzoxazol-3-yl}-2,6-dimethoxy-4-(oxan-3-yl)benzene-1-sulfonamide] | – | – | 6.1 | 0.8 |
| COCC(OC)c1cc(OC)c(S(=O)(=O)Nc2noc3cc(Nc4cc(C5CC5)[nH]n4)c(OC)cc23)c(OC)c1 (single isomer, unassigned) [Example 274, N-{6-[(5-cyclopropyl-1 H-pyrazol-3-yl)amino]-5-methoxy-1,2-benzoxazol-3-yl}-4-(1,2-dimethoxyethyl)-2,6-dimethoxybenzene-1-sulfonamide] | – | – | 6.9 | 2.8 |
| COCC(OC)c1cc(OC)c(S(=O)(=O)Nc2noc3cc(Nc4cc(C5CC5)[nH]n4)c(OC)cc23)c(OC)c1 (single isomer, unassigned) [Example 275, N-{6-[(5-cyclopropyl-1H-pyrazol-3-yl)amino]-5-methoxy-1,2-benzoxazol-3-yl}-4-(1,2-dimethoxyethyl)-2,6-dimethoxybenzene-1-sulfonamide] | – | – | 9.7 | 1.1 |
| COc1cccc(OC)c1S(=O)(=O)Nc1noc2cc(NC3COC3)cc(OC)c12 [Example 11, 2,6-dimethoxy-N-{4-methoxy-6-[(oxetan-3-yl)amino]-1,2-benzoxazol-3-yl}benzene-1-sulfonamide] | > 2340 | 31.1 | – | – |
| COc1cccc(OC)c1S(=O)(=O)Nc1noc2cc(NC3CCCC3)cc(OC)c12 [Example 12, N-[6-(cyclopentylamino)-4-methoxy-1,2-benzoxazol-3-yl]-2,6-dimethoxybenzene-1-sulfonamide] | > 2340 | 25.6 | – | – |
| COc1cccc(OC)c1S(=O)(=O)Nc1noc2cc(N[C@@H]3CCOC3)cc(OC)c12 [Example 13, 2,6-dimethoxy-N-(4-methoxy-6-{[(3R)-oxolan-3-yl]amino}-1,2-benzoxazol-3-yl)benzene-1-sulfonamide] | > 2340 | 25.5 | – | – |
| COc1cccc(OC)c1S(=O)(=O)Nc1noc2cc(Nc3ncco3)cc(OC)c12 [Example 17, 2,6-dimethoxy-N-{4-methoxy-6-[(1,3-oxazol-2-yl)amino]-1,2-benzoxazol-3-yl}benzene-1-sulfonamide] | 1230 | 1.9 | – | – |
| COc1cc2c(NS(=O)(=O)c3ccccc3)noc2cc1Nc1ccn(C)n1 [Example 21, N-{5-methoxy-6-[(1-methyl-1H-pyrazol-3-yl)amino]-1,2-benzoxazol-3-yl}benzenesulfonamide] | 625 | 7.9 | – | – |
| COc1cc2c(NS(=O)(=O)c3c(OC)cccc3OC)noc2cc1Nc1noc(C)n1 [Example 37, 2,6-dimethoxy-N-{5-methoxy-6-[(5-methyl-1,2,4-oxadiazol-3-yl)amino]-1,2-benzoxazol-3-yl}benzene-1-sulfonamide] | > 2340 | 15.9 | – | – |
| COc1cc2c(NS(=O)(=O)c3c(OC)cccc3OC)noc2cc1Nc1cc(C)nn1C [Example 38, N-{6-[(1,3-dimethyl-1H-pyrazol-5-yl)amino]-5-methoxy-1,2-benzoxazol-3-yl}-2,6-dimethoxybenzene-1-sulfonamide] | > 12500 | 60.4 | – | – |
| CCc1nc(Nc2cc3onc(NS(=O)(=O)c4c(OC)cccc4OC)c3cc2OC)no1 [Example 43, N-{6-[(5-ethyl-1,2,4-oxadiazol-3-yl)amino]-5-methoxy-1,2-benzoxazol-3-yl}-2,6-dimethoxybenzene-1-sulfonamide] | > 2340 | 55.5 | – | – |
